According to patent publication US8604206B2, “Compositions for preventing and/or treating degenerative disorders of the central nervous system” (Amicus Therapeutics, Inc., priority 2009, dated 2013):

How the values were obtained:
[1] = target: GCase (Homo sapiens (Human), UniProt P04062); experiment: GCase activity enhancement (EC50, Emax) of Table 2B; type: cell-based; conditions: for increase in GCase activity compared to IFG-tartrate: compared to reference compound IFG-tartrate
[2] = target: GCase (Mus musculus, UniProt P17439); experiment: GCase enhancement in tissues of orally dosed mice; type: in vivo; conditions: 9 doses over 2 weeks; for GCase increase (fold): 24-hour washout; for GCase enhancement in brain and spleen: mice, p.o.
Chain of GCase (Mus musculus, UniProt P17439) (P17439 20-515 limits assumed): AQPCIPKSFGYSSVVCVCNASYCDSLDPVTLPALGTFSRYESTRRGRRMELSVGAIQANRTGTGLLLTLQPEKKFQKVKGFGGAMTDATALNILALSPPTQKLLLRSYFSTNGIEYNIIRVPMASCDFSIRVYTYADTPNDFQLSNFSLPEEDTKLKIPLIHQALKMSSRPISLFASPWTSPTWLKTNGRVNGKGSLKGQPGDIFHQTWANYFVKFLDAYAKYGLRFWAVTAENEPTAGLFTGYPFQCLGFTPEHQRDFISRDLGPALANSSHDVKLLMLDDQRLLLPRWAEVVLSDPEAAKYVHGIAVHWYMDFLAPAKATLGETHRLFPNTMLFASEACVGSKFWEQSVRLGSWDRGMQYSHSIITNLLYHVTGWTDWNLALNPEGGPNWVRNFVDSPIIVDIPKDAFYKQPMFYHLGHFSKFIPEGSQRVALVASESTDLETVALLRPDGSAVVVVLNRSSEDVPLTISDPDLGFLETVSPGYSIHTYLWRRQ
Procedure: The ability of orally administered test compounds ((3R,4R,5S)-5-(difluoromethyl)piperidine-3,4-diol, (3R,4R,5S)-5-(1-fluoroethyl)piperidine-3,4-diol, (3R,4R,5S)-5-((R)-1-fluoropropyl)piperidine-3,4-diol hydrochloride, or (3R,4R,5S)-5-benzylpiperidine-3,4-diol) to elevate GCase levels was assessed in mice. For this purpose, 8-week old wild-type male mice (C57BL/6) were administered a […] p.o. (gavage) dose of a compound of the present invention (i.e., (3R,4R,5S)-5-(difluoromethyl)piperidine-3,4-diol, (3R,4R,5S)-5-(1-fluoroethyl)piperidine-3,4-diol, (3R,4R,5S)-5-((R)-1-fluoropropyl)piperidine-3,4-diol hydrochloride, or (3R,4R,5S)-5-benzylpiperidine-3,4-diol). The dosing solutions were prepared in water. Compounds were administered over 2 weeks as follows: week 1, Mon-Fri (On), Sat-Sun (Off); week 2, Mon-Thu (On); necropsy on Friday. Thus, a total of 9 doses (dosing solutions prepared fresh every day) were given to each mouse, with a 24-hour washout between the last dose and necropsy.
Plasma was collected by spinning blood at 2700 g for 10 minutes at 4° C. Liver, spleen, lung, and brain tissues were removed, washed in cold PBS, blotted dry, flash frozen on dry ice, and stored at −80° C. until analysis. GCase levels were measured by homogenizing approximately 50 mg tissue in 500 μL McIlvane (MI) buffer (100 mM sodium citrate, 200 mM sodium phosphate dibasic, 0.25% sodium taurocholate, and 0.1% Triton X-100, pH 5.2) at pH 5.2 for 3-5 seconds on ice with a micro homogenizer. Homogenates were then incubated at room temperature without and with 2.5 mM conduritol-B-epoxide (CBE) for 30 min. Finally, 3.7 mM 4-methylumbeliferryl-β-glucoside (4-MUG) substrate was added and incubated at 37° C. for 60 min. […] Fluorescence was measured on a plate reader for 1 sec/well using 355 nm excitation and 460 nm emission. Total protein was determined in lysates using the MicroBCA kit according to the manufacturer's instructions. A 4-methylumbelliferone (4-MU) standard curve ranging from 1.0 nM to 50 μM was run in parallel for conversion of raw fluorescence data to absolute GCase activity (in the presence and absence of CBE) and expressed as nanomoles of 4-MU released per milligram of protein per hour (nmol/mg protein/hr). GCase levels and protein levels were calculated using Microsoft Excel (Redmond, Wash.) and GraphPad Prism version 4.02.

[3] = target: lysosomal GCase (Homo sapiens (Human), UniProt P04062); experiment: In situ lysosomal GCase inhibition and washout assay in fibroblasts from a normal subject; type: cell-based; conditions: for IC50: fibroblasts, 16-24 hours with compound, PFBFDβGlu substrate; for in situ washout from the lysosomal compartment compared to IFG-tartrate: compared to reference compound IFG-tartrate; for in situ washout: fibroblasts treated at IC90, then drug-free medium
Chain of lysosomal GCase (P04062 40-536): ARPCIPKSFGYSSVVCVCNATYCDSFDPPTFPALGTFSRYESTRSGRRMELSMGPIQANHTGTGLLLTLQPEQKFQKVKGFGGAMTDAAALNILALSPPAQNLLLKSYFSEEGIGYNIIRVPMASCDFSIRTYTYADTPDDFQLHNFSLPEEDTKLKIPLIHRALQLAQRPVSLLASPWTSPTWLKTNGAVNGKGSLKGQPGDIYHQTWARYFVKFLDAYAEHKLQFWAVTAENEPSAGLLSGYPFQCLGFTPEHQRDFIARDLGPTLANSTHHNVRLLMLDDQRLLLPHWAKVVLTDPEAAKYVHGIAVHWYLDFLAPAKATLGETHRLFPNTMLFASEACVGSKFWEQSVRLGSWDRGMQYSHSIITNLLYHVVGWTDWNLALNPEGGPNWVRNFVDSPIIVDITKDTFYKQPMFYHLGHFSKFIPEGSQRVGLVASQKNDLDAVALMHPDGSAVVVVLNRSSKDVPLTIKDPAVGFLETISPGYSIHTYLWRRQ
Procedure: The effect of the novel compounds of the present invention on lysosomal GCase activity was assayed in situ using fibroblasts established from a normal subject. Cells seeded in 48-well plates were incubated with the indicated concentrations of compound for 16-24 hours. For the dose-response assays, cells were incubated with the in situ substrate 5-(pentafluorobenzoylamino)fluorescein di-β-D-glucopyranoside (PFBFDβGlu) for 1 hour and subsequently lysed to determine the extent of substrate hydrolysis in the presence of compound. […] Inhibition was determined as the ratio of activity in the presence of compound to that in the absence of compound. […] Cells were washed extensively and incubated in drug-free medium to allow net compound efflux from cells. Cells were then tested for lysosomal GCase activity at 2 hour intervals over a total period of 8 hours following compound removal. The increase in activity over time was fitted with a single exponential function to determine the compound's washout time.

[4] = Blood brain barrier penetration, plasma and brain levels after oral administration; type: in vivo, mouse; conditions: mice, single 30 mg/kg (free base equivalent) p.o.
Procedure: For this purpose, 8-week old wild-type male mice (C57BL/6) were administered a single 30 mg/kg (free base equivalent) p.o. dose of reference or test compound by gavage (n=3 mice per time point). Dosing solutions were prepared in water. After dosing, mice were euthanized with CO2 at the following time points: 0-, 0.5-, 1-, and 4-hour post-dose. […] Similarly, brains were collected from each mouse. Plasma was derived by spinning whole blood at 2,700×g for 10 minutes at 4° C. followed by storage on dry ice. Whole brains were washed in cold PBS to remove contaminating blood, blotted dry, flash frozen on dry ice, and ultimately stored at −80° C. until analysis. To prepare brain samples for analysis, 50-100 mg of tissue was homogenized in […] of water/mg tissue. Samples were then clarified by centrifugation. Next, 25 μl of the brain homogenate supernatant or 25 μl of plasma were combined with 25 μl of acetonitrile:water (95/5). […] Samples were again clarified by centrifugation and 75 μl of the supernatant was combined with 75 μl of acetonitrile. Samples were then analyzed for compound levels by LC-MS/MS at PPD Inc. (3230 Deming Way, Middleton, Wis. 53562). In brief, a Thermo Betasil, Silica-100, 50×3 mm, 5μ column equilibrated with a mixture of mobile phase consisting of 5 mM ammonium formate and 0.05% formic acid in (A) 95:5 acetonitrile:water or (B) 70:20:10 methanol:water:acetonitrile was employed. Between 20 and 30 μl sample was injected for analysis. For calculating drug concentrations, raw data for plasma (ng/mL) and brain (ng/g) was converted to nM using the molecular weight of respective compounds and assuming 1 g of tissue is equivalent to 1 mL volume. Concentration as a function of time was plotted in GraphPad Prism version 4.02.

Chain of GCase (Homo sapiens (Human), UniProt P04062) (P04062 40-536): as above

EC50 [1]	GCase increase (fold) ([2]; brain, 10 mg/kg FBE p.o.)	GCase increase (fold) ([2]; brain, 100 mg/kg FBE p.o.)	GCase increase (fold) ([2]; spleen, 10 mg/kg FBE p.o.)	GCase increase (fold) ([2]; spleen, 100 mg/kg FBE p.o.)	inhibition of GCase activity [3]	IC50 [3]	levels detected in brain compared to IFG-tartrate [4]	SMILES	increase in GCase activity compared to IFG-tartrate [1]	blood brain barrier crossing compared to IFG-tartrate [4]	GCase enhancement in brain and spleen [2]	in situ washout from the lysosomal compartment compared to IFG-tartrate [3]	in situ washout [3]
86 ± 2 nM	0.9 fold	1.1 fold	0.7 fold	0.7 fold	inhibited GCase activity	972 ± 201 nM	higher levels	CC[C@@H](F)[C@H]1CNC[C@@H](O)[C@@H]1O.Cl [(3R,4R,5S)-5-((R)-1-fluoropropyl)-piperidine-3,4-diol hydrochloride]	enhanced enzyme activity to the same maximum level as reference compound IFG-tartrate at much lower concentration	crossed the blood brain barrier more readily as compared to IFG-tartrate			
180 ± 10 nM	1.2 fold	1.4 fold	1.0 fold	1.2 fold	inhibited GCase activity	1300 ± 323 nM	higher levels	O[C@@H]1[C@@H](Cc2ccccc2)CNC[C@H]1O [(3R,4R,5S)-5-benzyl-piperidine-3,4-diol]	enhanced enzyme activity to the same maximum level as reference compound IFG-tartrate at much lower concentration	crossed the blood brain barrier more readily as compared to IFG-tartrate	significant GCase enhancement in brain and spleen	considerably faster than reference compound IFG-tartrate	1.2 ± 0.13 h

SMILES	EC50 [1]	GCase increase (fold) ([2]; brain, 10 mg/kg FBE p.o.)	GCase increase (fold) ([2]; brain, 100 mg/kg FBE p.o.)	GCase increase (fold) ([2]; spleen, 10 mg/kg FBE p.o.)	GCase increase (fold) ([2]; spleen, 100 mg/kg FBE p.o.)	inhibition of GCase activity [3]	IC50 [3]	levels detected in brain compared to IFG-tartrate [4]	increase in GCase activity compared to IFG-tartrate [1]	blood brain barrier crossing compared to IFG-tartrate [4]	GCase enhancement in brain and spleen [2]	in situ washout from the lysosomal compartment compared to IFG-tartrate [3]	in situ washout [3]
Cl.O[C@H]1[C@H](O)CNC[C@@H]1C(F)F [Cmpd 6, (3R,4R,5S)-5-(Difluoromethyl)piperidine 3,4-diol Hydrochloride]						inhibited GCase activity		higher levels	enhanced enzyme activity to the same maximum level as reference compound IFG-tartrate at much lower concentration	crossed the blood brain barrier more readily as compared to IFG-tartrate	significant GCase enhancement in brain and spleen	considerably faster than reference compound IFG-tartrate	2.1 ± 0.30 h
